Test: mn = molality of the nth substance listed, in mol/kg
Settings: 101 kPa, Liquid, Alternating current cell with electrodes

C[N+](C)(C)CCO.O=C([O-])C(F)(F)C(F)(F)C(F)(F)C(F)(F)C(F)(F)C(F)(F)C(F)(F)F [(2-hydroxyethyl)trimethylammonium perfluorooctanoate] + O
Settings	electrical conductivity [S/m]
293.15 K, m1 = 7.6e-05	0.0005
293.15 K, m1 = 0.000243	0.0015
293.15 K, m1 = 0.000338	0.0021
293.15 K, m1 = 0.000489	0.0031
293.15 K, m1 = 0.000626	0.0039
293.15 K, m1 = 0.000747	0.0046
293.15 K, m1 = 0.000847	0.0053
293.15 K, m1 = 0.000968	0.0061
293.15 K, m1 = 0.001108	0.007
293.15 K, m1 = 0.001301	0.008
293.15 K, m1 = 0.001463	0.0091
293.15 K, m1 = 0.001591	0.0098
293.15 K, m1 = 0.001689	0.0106
293.15 K, m1 = 0.00186	0.0114
293.15 K, m1 = 0.001996	0.0123
293.15 K, m1 = 0.002117	0.0129
293.15 K, m1 = 0.00224	0.0138
293.15 K, m1 = 0.002376	0.0145
293.15 K, m1 = 0.002497	0.0153
293.15 K, m1 = 0.00262	0.016
293.15 K, m1 = 0.002737	0.0167
293.15 K, m1 = 0.002945	0.018
293.15 K, m1 = 0.00309	0.0188
293.15 K, m1 = 0.003212	0.0196
293.15 K, m1 = 0.003363	0.0202
293.15 K, m1 = 0.003476	0.0208
293.15 K, m1 = 0.003596	0.0216
293.15 K, m1 = 0.003714	0.0222
298.15 K, m1 = 6.2e-05	0.0004
298.15 K, m1 = 0.000138	0.0009
298.15 K, m1 = 0.00019	0.0013
298.15 K, m1 = 0.000258	0.0018
298.15 K, m1 = 0.000317	0.0022
298.15 K, m1 = 0.000375	0.0026
298.15 K, m1 = 0.000432	0.003
298.15 K, m1 = 0.000488	0.0034
298.15 K, m1 = 0.000547	0.0038
298.15 K, m1 = 0.000619	0.0044
298.15 K, m1 = 0.000704	0.0049
298.15 K, m1 = 0.00077	0.0054
298.15 K, m1 = 0.000828	0.006
298.15 K, m1 = 0.00091	0.0066
298.15 K, m1 = 0.000999	0.0072
298.15 K, m1 = 0.001085	0.0078
298.15 K, m1 = 0.001174	0.0084
298.15 K, m1 = 0.001268	0.009
298.15 K, m1 = 0.001353	0.0096
298.15 K, m1 = 0.001452	0.0102
298.15 K, m1 = 0.001544	0.0109
298.15 K, m1 = 0.001654	0.0115
298.15 K, m1 = 0.001755	0.0119
298.15 K, m1 = 0.00185	0.0125
298.15 K, m1 = 0.001933	0.013
298.15 K, m1 = 0.002054	0.0138
298.15 K, m1 = 0.002177	0.0146
298.15 K, m1 = 0.002284	0.0152
298.15 K, m1 = 0.00241	0.016
298.15 K, m1 = 0.002525	0.0167
298.15 K, m1 = 0.002643	0.0174
298.15 K, m1 = 0.002738	0.018
298.15 K, m1 = 0.002963	0.0194
298.15 K, m1 = 0.003158	0.0205
298.15 K, m1 = 0.003285	0.0213
298.15 K, m1 = 0.003418	0.0221
298.15 K, m1 = 0.003542	0.0228
298.15 K, m1 = 0.00364	0.0234
298.15 K, m1 = 0.003768	0.0242
298.15 K, m1 = 0.003952	0.0253
298.15 K, m1 = 0.004493	0.0287
298.15 K, m1 = 0.005611	0.0355
298.15 K, m1 = 0.006271	0.0391
298.15 K, m1 = 0.006873	0.0424
298.15 K, m1 = 0.007507	0.0463
303.15 K, m1 = 6.9e-05	0.0006
303.15 K, m1 = 0.000173	0.0013
303.15 K, m1 = 0.000265	0.002
303.15 K, m1 = 0.000396	0.0031
303.15 K, m1 = 0.000504	0.0039
303.15 K, m1 = 0.000614	0.0048
303.15 K, m1 = 0.000711	0.0055
303.15 K, m1 = 0.000794	0.0061
303.15 K, m1 = 0.000992	0.0077
303.15 K, m1 = 0.001091	0.0084
303.15 K, m1 = 0.001177	0.0091
303.15 K, m1 = 0.00129	0.0099
303.15 K, m1 = 0.001381	0.0105
303.15 K, m1 = 0.001497	0.0113
303.15 K, m1 = 0.001589	0.012
303.15 K, m1 = 0.001698	0.0128
303.15 K, m1 = 0.002339	0.0176
303.15 K, m1 = 0.002615	0.0196
303.15 K, m1 = 0.002737	0.0204
303.15 K, m1 = 0.002834	0.021
303.15 K, m1 = 0.002921	0.0216
303.15 K, m1 = 0.003011	0.0222
303.15 K, m1 = 0.003103	0.0229
303.15 K, m1 = 0.003204	0.0237
303.15 K, m1 = 0.003323	0.0244
303.15 K, m1 = 0.003408	0.025
303.15 K, m1 = 0.003487	0.0256
303.15 K, m1 = 0.003599	0.0264
303.15 K, m1 = 0.003701	0.0271
303.15 K, m1 = 0.003815	0.0279
303.15 K, m1 = 0.003911	0.0285
303.15 K, m1 = 0.004027	0.0293
303.15 K, m1 = 0.004122	0.03
303.15 K, m1 = 0.004288	0.0311
303.15 K, m1 = 0.004393	0.0318
303.15 K, m1 = 0.004492	0.0325
303.15 K, m1 = 0.004585	0.0331
303.15 K, m1 = 0.004679	0.0337
303.15 K, m1 = 0.004785	0.0345
308.15 K, m1 = 6.9e-05	0.0006
308.15 K, m1 = 0.000131	0.0012
308.15 K, m1 = 0.000188	0.0016
308.15 K, m1 = 0.000233	0.002
308.15 K, m1 = 0.000278	0.0024
308.15 K, m1 = 0.000329	0.0029
308.15 K, m1 = 0.000372	0.0032
308.15 K, m1 = 0.000407	0.0035
308.15 K, m1 = 0.000451	0.0039
308.15 K, m1 = 0.000486	0.0043
308.15 K, m1 = 0.000545	0.0048
308.15 K, m1 = 0.000576	0.0051
308.15 K, m1 = 0.000628	0.0055
308.15 K, m1 = 0.000669	0.0059
308.15 K, m1 = 0.000706	0.0062
308.15 K, m1 = 0.000758	0.0067
308.15 K, m1 = 0.000796	0.007
308.15 K, m1 = 0.000831	0.0073
308.15 K, m1 = 0.000864	0.0076
308.15 K, m1 = 0.0009	0.0079
308.15 K, m1 = 0.000934	0.0082
308.15 K, m1 = 0.000981	0.0087
308.15 K, m1 = 0.001026	0.0091
308.15 K, m1 = 0.00106	0.0094
308.15 K, m1 = 0.001098	0.0097
308.15 K, m1 = 0.001138	0.0101
308.15 K, m1 = 0.001211	0.0107
308.15 K, m1 = 0.001265	0.0112
308.15 K, m1 = 0.001299	0.0114
308.15 K, m1 = 0.001362	0.012
308.15 K, m1 = 0.001397	0.0123
308.15 K, m1 = 0.001445	0.0127
308.15 K, m1 = 0.0015	0.0132
308.15 K, m1 = 0.001539	0.0136
308.15 K, m1 = 0.001701	0.015
308.15 K, m1 = 0.001808	0.0159
308.15 K, m1 = 0.001958	0.0173
308.15 K, m1 = 0.002148	0.0189
308.15 K, m1 = 0.002371	0.0209
308.15 K, m1 = 0.0025	0.022
308.15 K, m1 = 0.002602	0.0229
308.15 K, m1 = 0.002723	0.0239
308.15 K, m1 = 0.00288	0.0253
308.15 K, m1 = 0.003015	0.0265
308.15 K, m1 = 0.003126	0.0274
308.15 K, m1 = 0.00328	0.0287
308.15 K, m1 = 0.003401	0.0297
308.15 K, m1 = 0.003526	0.0308
308.15 K, m1 = 0.003657	0.0319
308.15 K, m1 = 0.003764	0.0328
308.15 K, m1 = 0.003883	0.0337
308.15 K, m1 = 0.003991	0.0346
308.15 K, m1 = 0.004106	0.0356
308.15 K, m1 = 0.00422	0.0365
308.15 K, m1 = 0.004341	0.0375
308.15 K, m1 = 0.004478	0.0386
308.15 K, m1 = 0.004597	0.0396
308.15 K, m1 = 0.004723	0.0405
313.15 K, m1 = 0.000143	0.0013
313.15 K, m1 = 0.000274	0.0026
313.15 K, m1 = 0.000394	0.0038
313.15 K, m1 = 0.000543	0.005
313.15 K, m1 = 0.00064	0.006
313.15 K, m1 = 0.000773	0.0073
313.15 K, m1 = 0.000904	0.0087
313.15 K, m1 = 0.001044	0.0101
313.15 K, m1 = 0.001221	0.012
313.15 K, m1 = 0.001372	0.0134
313.15 K, m1 = 0.001554	0.0149
313.15 K, m1 = 0.001697	0.0164
313.15 K, m1 = 0.001835	0.0178
313.15 K, m1 = 0.002088	0.02
313.15 K, m1 = 0.002327	0.0222
313.15 K, m1 = 0.002528	0.0242
313.15 K, m1 = 0.002879	0.0274
313.15 K, m1 = 0.003226	0.0306
313.15 K, m1 = 0.003438	0.0318
313.15 K, m1 = 0.003602	0.0333
313.15 K, m1 = 0.003774	0.035
313.15 K, m1 = 0.004014	0.037
313.15 K, m1 = 0.00417	0.0382
313.15 K, m1 = 0.004352	0.0397
313.15 K, m1 = 0.004528	0.0415
313.15 K, m1 = 0.004708	0.043
313.15 K, m1 = 0.004876	0.0446
313.15 K, m1 = 0.005072	0.0463
313.15 K, m1 = 0.005237	0.0477

Reference: the NIST ThermoML archive (doi:10.1021/acs.jced.6b00455)
